Assays:
L4 larvae of D. immitis = test: microbe, parasite or virus in culture; type: cell-based; settings: Dirofilaria immitis, 72 h, read-out: MIC100, lowest dose that results in complete loss of motility
D. immitis microfilariae = test: Activity against D. immitis microfilariae (viability after 3 days incubation); type: cell-based; settings: Dirofilaria immitis, in Canis lupus familiaris, 72 h, read-out: Microfilaricidal activity, half maximal effective concentration (EC50)

Structure (SMILES)	MIC (L4 larvae of D. immitis)	EC50 (D. immitis microfilariae)
O=C(CO[C@H]1CC[C@H](Nc2ccc([N+](=O)[O-])c(C(F)(F)F)c2)CC1)N1CCC(Oc2ccc(OC(F)(F)F)cc2)CC1 [Example 266]	< 10 µM	< 5 µM
O=C(CO[C@H]1CC[C@H](Nc2ccc([N+](=O)[O-])c(C(F)(F)F)c2)CC1)N1CCC(Nc2ccc(C(F)(F)F)cc2)CC1 [Example 267]	< 10 µM	< 10 µM
